Data published in patent publication US20090163586A1, “Bis-(Sulfonylamino) Derivatives in Therapy 205” (AstraZeneca AB, priority 2007, published 2009).

biological target: T1, human mPGES-1 (Homo sapiens, UniProt O14684); test: Microsomal prostaglandin E synthase biochemical assay; details: microsome preparation containing human mPGES-1; PGH2 10.8 μM, GSH 2.5 mM, pH 6.8; PGE2 by HTRF; average of at least n=2
T1 sequence (O14684 1-152): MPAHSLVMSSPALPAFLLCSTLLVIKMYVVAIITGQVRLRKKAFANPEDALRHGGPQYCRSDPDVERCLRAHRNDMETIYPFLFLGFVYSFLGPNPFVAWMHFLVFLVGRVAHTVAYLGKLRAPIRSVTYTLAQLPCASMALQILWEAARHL
Summary of the method: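 Human mPGES-1 microsomes at 2 μg/mL were pre-incubated 15 min with compound (60 μM to 0.002 μM) in 50 mM potassium phosphate pH 6.8 with 2.5 mM GSH. The reaction was started with 10.8 μM PGH2 and stopped after 1 minute with acidic ferric chloride/citrate. PGE2 was quantified by HTRF; IC50 is the mean of at least 2 runs.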

Q: `NS(=O)(=O)c1ccccc1NS(=O)(=O)c1ccc(-c2ccc(Cl)c(Cl)c2)cc1` [Example 173, 2-[[4-(3,4-Dichlorophenyl)phenyl]sulfonylamino]benzenesulfonamide] was tested. Which IC50 did it give?
A: Its IC50 is 1500 nM.

Q: For `NS(=O)(=O)c1ccccc1NS(=O)(=O)c1cccc(-c2ccc(Cl)c(Cl)c2)c1` [Example 174, 2-[[3-(3,4-Dichlorophenyl)phenyl]sulfonylamino]benzenesulfonamide], which IC50 is on record?
A: Its IC50 is 220 nM.

Q: For `NS(=O)(=O)c1ccccc1NS(=O)(=O)c1ccc(Oc2ccc(Cl)cc2)cc1` [Example 175, 2-[[4-(4-Chlorophenoxy)phenyl]sulfonylamino]benzenesulfonamide], which IC50 is on record?
A: Its IC50 is 3700 nM.

Q: With `Cc1cc(NC(=O)Nc2ccc(Cl)cc2)ccc1S(=O)(=O)Nc1ccccc1S(N)(=O)=O` [Example 176, 3-(4-Chlorophenyl)-1-[3-methyl-4-[(2-sulfamoylphenyl)sulfamoyl]phenyl]urea] as the compound, how does the IC50 read?
A: Its IC50 is 900 nM.

Q: How did the IC50 turn out when `CNS(=O)(=O)c1ccc2c(c1)-c1cc(S(=O)(=O)Nc3ccccc3S(N)(=O)=O)ccc1S2(=O)=O` [Example 177, N-Methyl-N′-(2-sulfamoylphenyl)dibenzo[b,d]thiophene-2,8-disulfonamide 5,5-dioxide] was run?
A: The IC50 was 2200 nM.

Q: Which IC50 does the source give for `NS(=O)(=O)c1cc(F)c(F)cc1NS(=O)(=O)c1cccc(Cl)c1Cl` [Example 178, 2,3-Dichloro-N-(4,5-difluoro-2-sulfamoylphenyl)benzenesulfonamide] here?
A: Its IC50 is 2700 nM.

Q: With `N#Cc1ccc(S(N)(=O)=O)c(NS(=O)(=O)CCc2ccc(Cl)c(Cl)c2)c1` [Example 180, 4-Cyano-2-(2-(3,4-dichlorophenyl)ethylsulfonamido)benzenesulfonamide] as the compound, how does the IC50 read?
A: The IC50 was 1400 nM.

Q: How did the IC50 turn out when `COc1cc(Cl)ccc1CCS(=O)(=O)Nc1cc(C#N)ccc1S(N)(=O)=O` [Example 181, 2-(2-(4-Chloro-2-methoxyphenyl)ethylsulfonamido)-4-cyanobenzenesulfonamide] was run?
A: Its IC50 is 370 nM.

Q: How did the IC50 turn out when `COc1cc(Cl)ccc1CCS(=O)(=O)Nc1ccc(C#N)cc1S(N)(=O)=O` [Example 182, 2-(2-(4-Chloro-2-methoxyphenyl)ethylsulfonamido)-5-cyanobenzenesulfonamide] was run?
A: The IC50 was 520 nM.

Q: How did the IC50 turn out when `CC(C)(C)C#Cc1ccc(CCS(=O)(=O)Nc2ccccc2S(N)(=O)=O)cc1` [Example 183, 2-(2-(4-(3,3-dimethylbut-1-ynyl)phenyl)ethylsulfonamido)benzenesulfonamide] was run?
A: Its IC50 is 81 nM.

Q: How did the IC50 turn out when `CC(C)(O)C#Cc1ccc(CCS(=O)(=O)Nc2ccccc2S(N)(=O)=O)cc1` [Example 184, 2-(2-(4-(3-Hydroxy-3-methylbut-1-ynyl)phenyl)ethylsulfonamido)benzenesulfonamide] was run?
A: Its IC50 is 9600 nM.

Q: How did the IC50 turn out when `CC(C)(C)C#Cc1cccc(S(=O)(=O)Nc2ccccc2S(N)(=O)=O)c1` [Example 185, 3-(3,3-Dimethylbut-1-ynyl)-N-(2-sulfamoylphenyl)benzenesulfonamide] was run?
A: Its IC50 is 2500 nM.

Q: Which IC50 does the source give for `COc1cc(Cl)ccc1CCS(=O)(=O)Nc1ccccc1S(N)(=O)=O` [Example 186, 2-(2-(4-Chloro-2-methoxyphenyl)ethylsulfonamido)benzenesulfonamide] here?
A: The IC50 was 250 nM.

Q: With `CC(C)(C)C#Cc1ccc(CCS(=O)(=O)Nc2ccccc2S(N)(=O)=O)cn1` [Example 187, 2-(2-(6-(3,3-Dimethylbut-1-ynyl)pyridin-3-yl)ethylsulfonamido)benzenesulfonamide] as the compound, how does the IC50 read?
A: The IC50 was 680 nM.

Q: Which IC50 does the source give for `NS(=O)(=O)c1ccccc1NS(=O)(=O)CCc1ccc(C#CC2CCCCC2)nc1` [Example 188, 2-(2-(6-(cyclohexylethynyl)pyridin-3-yl)ethylsulfonamido)benzenesulfonamide] here?
A: The IC50 was 270 nM.

Q: `Cc1ccc(NS(=O)(=O)CCc2ccc(Br)cc2)c(S(N)(=O)=O)c1` [Example 189, 2-(2-(4-Bromophenyl)ethylsulfonamido)-5-methylbenzenesulfonamide] was tested. Which IC50 did it give?
A: The IC50 was 1400 nM.

Q: `Cc1ccc(NS(=O)(=O)/C=C/c2ccc(Br)cc2)c(S(N)(=O)=O)c1` [Example 190, (E)-2-(2-(4-Bromophenyl)vinylsulfonamido)-5-methylbenzenesulfonamide] was tested. Which IC50 did it give?
A: The IC50 was 680 nM.

Q: `Cc1nc(-c2cccc(S(=O)(=O)Nc3ccccc3S(N)(=O)=O)c2)cs1` [Example 191, 3-(2-Methylthiazol-4-yl)-N-(2-sulfamoylphenyl)benzenesulfonamide] was tested. Which IC50 did it give?
A: The IC50 was 8300 nM.

Q: For `NS(=O)(=O)c1ccccc1NS(=O)(=O)/C=C/c1cccc(C(F)(F)F)c1` [Example 192, (E)-2-(2-(3-(Trifluoromethyl)phenyl)vinylsulfonamido)benzenesulfonamide], which IC50 is on record?
A: The IC50 was 3200 nM.

Q: `NS(=O)(=O)c1ccccc1NS(=O)(=O)/C=C/c1ccccc1F` [Example 193, (E)-2-(2-(2-Fluorophenyl)vinylsulfonamido)benzenesulfonamide] was tested. Which IC50 did it give?
A: Its IC50 is 7900 nM.

Q: How did the IC50 turn out when `COc1cc(Cl)ccc1CCS(=O)(=O)Nc1ccc(Cl)cc1S(N)(=O)=O` [Example 194, 5-Chloro-2-(2-(4-chloro-2-methoxyphenyl)ethylsulfonamido)benzenesulfonamide] was run?
A: The IC50 was 1000 nM.

Q: `NS(=O)(=O)c1cc(Cl)ccc1NS(=O)(=O)c1cccc(Cl)c1Cl` [Example 195, 2,3-Dichloro-N-(4-chloro-2-sulfamoylphenyl)benzenesulfonamide] was tested. Which IC50 did it give?
A: Its IC50 is 5500 nM.

Q: How did the IC50 turn out when `NS(=O)(=O)c1c(F)cc(F)cc1NS(=O)(=O)c1cccc(Cl)c1Cl` [Example 196, 2,3-Dichloro-N-(3,5-difluoro-2-sulfamoylphenyl)benzenesulfonamide] was run?
A: The IC50 was 1900 nM.

Q: For `NS(=O)(=O)c1c(F)cc(F)cc1NS(=O)(=O)CCc1ccc(Cl)c(Cl)c1` [Example 197, 2-(2-(3,4-Dichlorophenyl)ethylsulfonamido)-4,6-difluorobenzenesulfonamide], which IC50 is on record?
A: The IC50 was 640 nM.

Q: For `COc1cc(Cl)ccc1CCS(=O)(=O)Nc1cc(F)cc(F)c1S(N)(=O)=O` [Example 198, 2-(2-(4-Chloro-2-methoxyphenyl)ethylsulfonamido)-4,6-difluorobenzenesulfonamide], which IC50 is on record?
A: Its IC50 is 290 nM.

Q: For `N#Cc1ccc(NS(=O)(=O)CCc2ccc(Cl)c(Cl)c2)c(S(N)(=O)=O)c1` [Example 199, 5-Cyano-2-(2-(3,4-dichlorophenyl)ethylsulfonamido)benzenesulfonamide], which IC50 is on record?
A: Its IC50 is 2500 nM.

Q: How did the IC50 turn out when `Cc1ccc(S(N)(=O)=O)c(NS(=O)(=O)CCc2ccc(Cl)c(Cl)c2)c1` [Example 200] was run?
A: Its IC50 is 1400 nM.

Q: `COc1cc(Cl)ccc1CCS(=O)(=O)Nc1cc(C)ccc1S(N)(=O)=O` [Example 201, 2-(2-(4-Chloro-2-methoxyphenyl)ethylsulfonamido)-4-methylbenzenesulfonamide] was tested. Which IC50 did it give?
A: Its IC50 is 720 nM.

Q: `NS(=O)(=O)c1cc(Cl)ccc1NS(=O)(=O)CCc1ccc(Cl)c(Cl)c1` [Example 202, 5-Chloro-2-(2-(3,4-dichlorophenyl)ethylsulfonamido)benzenesulfonamide] was tested. Which IC50 did it give?
A: The IC50 was 2900 nM.

Q: `COc1ncc(-c2cccc(S(=O)(=O)Nc3ccncc3S(N)(=O)=O)c2)cc1Cl` [Example 203, 4-(3-(5-Chloro-6-methoxypyridin-3-yl)phenylsulfonamido)pyridine-3-sulfonamide] was tested. Which IC50 did it give?
A: Its IC50 is 2100 nM.

Q: For `NS(=O)(=O)c1cnccc1NS(=O)(=O)CCc1ccc(-c2cc3ccccc3o2)cc1` [Example 204, 4-(2-(4-(Benzofuran-2-yl)phenyl)ethylsulfonamido)pyridine-3-sulfonamide], which IC50 is on record?
A: Its IC50 is 620 nM.

Q: For `COc1cc(Cl)ccc1CCS(=O)(=O)Nc1ccc(C)cc1S(N)(=O)=O` [Example 205, 2-(2-(4-Chloro-2-methoxyphenyl)ethylsulfonamido)-5-methylbenzenesulfonamide], which IC50 is on record?
A: Its IC50 is 560 nM.

Q: `COc1cc(Cl)ccc1CCS(=O)(=O)Nc1ccncc1S(N)(=O)=O` [Example 206, 4-(2-(4-Chloro-2-methoxyphenyl)ethylsulfonamido)pyridine-3-sulfonamide] was tested. Which IC50 did it give?
A: Its IC50 is 9100 nM.

Q: How did the IC50 turn out when `NS(=O)(=O)c1ccccc1NS(=O)(=O)/C=C/c1ccc(C2=CCCC2)cc1` [Example 207, (E)-2-(2-(4-Cyclopentenylphenyl)vinylsulfonamido)benzenesulfonamide] was run?
A: The IC50 was 97 nM.

Q: For `CC(C)(C)C#Cc1ccc(/C=C/S(=O)(=O)Nc2ccccc2S(N)(=O)=O)cc1` [Example 208, (E)-2-(2-(4-(3,3-Dimethylbut-1-ynyl)phenyl)vinylsulfonamido)benzenesulfonamide], which IC50 is on record?
A: Its IC50 is 55 nM.

Q: With `CC(C)(O)C#Cc1ccc(/C=C/S(=O)(=O)Nc2ccccc2S(N)(=O)=O)cc1` [Example 209, (E)-2-(2-(4-(3-Hydroxy-3-methylbut-1-ynyl)phenyl)vinylsulfonamido)benzenesulfonamide] as the compound, how does the IC50 read?
A: Its IC50 is 220 nM.

Q: `Cc1ccc(NS(=O)(=O)CCc2ccc(C#CC(C)(C)C)cc2)c(S(N)(=O)=O)c1` [Example 210, 2-{2-[4-(3,3-Dimethyl-but-1-ynyl)-phenyl]-ethanesulfonylamino}-5-methyl-benzenesulfonamide] was tested. Which IC50 did it give?
A: Its IC50 is 360 nM.

Q: For `CC(C)(C)C#Cc1ccc(CCS(=O)(=O)Nc2ccc(CO)cc2S(N)(=O)=O)cc1` [Example 211, 2-{2-[4-(3,3-Dimethyl-but-1-ynyl)-phenyl]-ethanesulfonylamino}-5-hydroxymethyl-benzenesulfonamide], which IC50 is on record?
A: The IC50 was 75 nM.

Q: How did the IC50 turn out when `NS(=O)(=O)c1cc(CO)ccc1NS(=O)(=O)CCc1ccc(C#CC2CCCC2)cc1` [Example 212, 2-[2-(4-Cyclopentylethynyl-phenyl)-ethanesulfonylamino]-5-hydroxymethyl-benzenesulfonamide] was run?
A: Its IC50 is 41 nM.

Q: How did the IC50 turn out when `COc1cc(Cl)ccc1CCS(=O)(=O)Nc1ccc(CO)cc1S(N)(=O)=O` [Example 213, 2-[2-(4-Chloro-2-methoxy-phenyl)-ethanesulfonylamino]-5-hydroxymethyl-benzenesulfonamide] was run?
A: The IC50 was 330 nM.

Q: `CC(C)(C)C#Cc1ccc(CCS(=O)(=O)Nc2ccsc2S(N)(=O)=O)cc1` [Example 214, 3-{2-[4-(3,3-Dimethyl-but-1-ynyl)-phenyl]-ethanesulfonylamino}-thiophene-2-sulfonic acid amide] was tested. Which IC50 did it give?
A: The IC50 was 1400 nM.
